Patent publication US20170247393A1, “Aminoisoxazoline Compounds as Agonists of Alpha7-Nicotinic Acetylcholine Receptors” (Forum Pharmaceuticals, Inc., priority 2015, published 2017)
Where a name gives a salt, the structure may show the parent alone.

molecular target: human α7 nAChR (Homo sapiens, UniProt P36544); test: not given; conditions: reference compound in the above described human α7 nAChR binding assay provided by Cerep
Sequence (P36544 23-502): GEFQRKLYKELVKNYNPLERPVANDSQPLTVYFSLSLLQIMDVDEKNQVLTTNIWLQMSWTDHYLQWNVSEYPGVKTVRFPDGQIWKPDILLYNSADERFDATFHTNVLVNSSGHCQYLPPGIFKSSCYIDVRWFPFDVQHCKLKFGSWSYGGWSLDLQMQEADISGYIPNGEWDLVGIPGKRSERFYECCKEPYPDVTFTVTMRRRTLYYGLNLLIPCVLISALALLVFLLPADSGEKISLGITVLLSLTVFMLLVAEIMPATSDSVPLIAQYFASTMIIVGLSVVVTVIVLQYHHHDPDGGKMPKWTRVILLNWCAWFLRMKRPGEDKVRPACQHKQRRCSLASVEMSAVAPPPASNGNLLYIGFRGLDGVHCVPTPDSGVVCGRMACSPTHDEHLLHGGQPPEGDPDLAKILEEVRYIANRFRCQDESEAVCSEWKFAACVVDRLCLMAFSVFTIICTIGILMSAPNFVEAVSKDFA

Row | Structure (SMILES) | Ki
1 | Cc1ccc(-c2ccc(OC3CN4CCC3CC4)cn2)cc1 (stereo not drawn) [AQW051] | 0.255 µM

molecular target: T1, human 5-HT3 serotonin receptors (Homo sapiens, UniProt P46098); test: biochemical; format: binding; conditions: not given
T1 sequence (P46098 24-478): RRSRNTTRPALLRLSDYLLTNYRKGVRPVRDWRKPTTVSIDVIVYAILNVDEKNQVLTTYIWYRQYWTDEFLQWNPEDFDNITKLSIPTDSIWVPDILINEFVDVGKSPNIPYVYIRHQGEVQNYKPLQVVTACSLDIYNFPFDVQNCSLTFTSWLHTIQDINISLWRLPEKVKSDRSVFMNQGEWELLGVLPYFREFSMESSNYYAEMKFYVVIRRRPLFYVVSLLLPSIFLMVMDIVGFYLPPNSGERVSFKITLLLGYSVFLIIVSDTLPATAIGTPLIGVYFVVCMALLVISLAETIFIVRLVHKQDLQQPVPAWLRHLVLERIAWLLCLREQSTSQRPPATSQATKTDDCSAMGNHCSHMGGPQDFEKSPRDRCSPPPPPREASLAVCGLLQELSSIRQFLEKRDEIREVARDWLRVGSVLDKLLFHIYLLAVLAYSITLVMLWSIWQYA

Row | Structure (SMILES) | Ki
2 | Clc1cc2cnc(NC3=NO[C@@]4(C3)CN3CCC4CC3)cc2cc1Cl [(R)-62, (R)—N-(6,7-dichloroisoquinolin-3-yl)-4H-1′-azaspiro[isoxazole-5,3′-bicyclo[2.2.2]octan]-3-amine trifluoroacetate] | > 10 µM
3 | Clc1coc2cc(NC3=NO[C@@]4(C3)CN3CCC4CC3)ccc12 [(R)-73-1, (R)—N-(3-chlorobenzofuran-6-yl)-4H-1′-azaspiro[isoxazole-5,3′-bicyclo[2.2.2]octan]-3-amine hydrochloride] | 4.9 µM
4 | Cc1cn2ccc(NC3=NO[C@@]4(C3)CN3CCC4CC3)cc2n1 [(R)-96, (R)-N-(2-methylimidazo[1,2-a]pyridin-7-yl)-4H-1′-azaspiro[isoxazole-5,3′-bicyclo[2.2.2]octan]-3-amine hydrochloride] | > 10 µM
5 | Cc1cc2cnc(NC3=NO[C@@]4(C3)CN3CCC4CC3)cc2s1 [(R)-99, (R)-N-(2-methylthieno[3,2-c]pyridin-6-yl)spiro[4H-isoxazole-5,3′-quinuclidine]-3-amine hydrochloride] | > 10 µM
6 | Cc1cc2cnc(NC3=NO[C@@]4(C3)CN3CCC4CC3)cc2o1 [(R)-100, (R)-N-(2-methylfuro[3,2-c]pyridin-6-yl)spiro[4H-isoxazole-5,3′-quinuclidine]-3-amine hydrochloride] | > 10 µM

same assay, conditions: CHO cell membranes expressing human 5-HT3 receptors, [3H]BRL 43694, 120 min at room temperature; read-out: h-5HT3 Ki

Row | Structure (SMILES) | Ki
7 | Cc1cc2cnc(NC3=NO[C@@]4(C3)CN3CCC4CC3)nc2s1 [(R)-52, (R)—N-(6-methylthieno[2,3-d]pyrimidin-2-yl)-4H-1′-azaspiro[isoxazole-5,3′-bicyclo[2.2.2]octan]-3-amine hydrochloride] | > 10 µM
8 | Cc1cc2ccc(NC3=NO[C@@]4(C3)CN3CCC4CC3)nc2s1 [(R)-53, (R)—N-(2-methylthieno[2,3-b]pyridin-6-yl)-4H-1′-azaspiro[isoxazole-5,3′-bicyclo[2.2.2]octan]-3-amine hydrochloride] | > 10 µM
9 | Clc1cc2ccc(NC3=NO[C@@]4(C3)CN3CCC4CC3)cc2s1 [(R)-54, (R)—N-(2-chlorobenzo[b]thiophen-6-yl)-4H-F-azaspiroksoxazole-5,3^1-bicyclo[2.2.2]octan1-3-amine hydrochloride] | > 10 µM
10 | Fc1sc2cc(NC3=NO[C@@]4(C3)CN3CCC4CC3)ccc2c1F [(R)-55, hydrochloride] | 2.2 µM
11 | Cc1csc2cc(NC3=NO[C@@]4(C3)CN3CCC4CC3)ccc12 [(R)-56, (R)—N -(3-methylbenzo[b]thiophen-6-yl)-4H-1′-azaspiro[isoxazole-5,3′-bicyclo[2.2.2]octan]-3-amine hydrochloride] | > 10 µM
12 | Cc1ccc2cc(NC3=NO[C@@]4(C3)CN3CCC4CC3)ncc2c1 [(R)-59, (R)—N-(7-methylisoquinolin-3-yl)-4H-1′-azaspiro[isoxazole-5,3′-bicyclo[2.2.2]octan]-3-amine hydrochloride] | > 10 µM
13 | Cc1ccc2cnc(NC3=NO[C@@]4(C3)CN3CCC4CC3)cc2c1 [(R)-60, (R)—N-(6-methylisoquinolin-3-yl)-4H-1′-azaspiro[isoxazole-5,3′-bicyclo[2.2.2]octan]-3-amine hydrochloride] | > 10 µM
14 | Fc1cc2cnc(NC3=NO[C@@]4(C3)CN3CCC4CC3)cc2cc1F [(R)-61, (R)—N-(6,7-difluoroisoquinolin-3-yl)-4H-1′-azaspiro[isoxazole-5,3′-bicyclo[2.2.2]octan]-3-amine hydrochloride] | > 10 µM
15 | Clc1cc2ccc(NC3=NO[C@@]4(C3)CN3CCC4CC3)cc2o1 [(R)-63, (R)—N-(2-chlorobenzofuran-6-yl)-4H-1′-azaspiro[isoxazole-5,3′-bicyclo[2.2.2]octan]-3-amine hydrochloride] | > 10 µM
16 | Cn1ncc2ccc(NC3=NO[C@@]4(C3)CN3CCC4CC3)cc21 [(R)-64, (R)—N-(1-methyl-1H-indazol-6-yl)-4H-1′-azaspiro[isoxazole-5,3′-bicyclo[2.2.2]octan]-3-amine hydrochloride] | > 10 µM
17 | Cn1ncc2cc(NC3=NO[C@@]4(C3)CN3CCC4CC3)ccc21 [(R)-65, (R)—N-(1-methyl-1H-indazol-5-yl)-4H-1′-azaspiro[isoxazole-5,3′-bicyclo[2.2.2]octan]-3-amine hydrochloride] | > 10 µM
18 | Cc1noc2cc(NC3=NO[C@@]4(C3)CN3CCC4CC3)ccc12 [(R)-66, (R)—N -(3-methylbenzo[d]isoxazol-6-yl)-4H-1′-azaspiro[isoxazole-5,3′-bicyclo[2.2.2]octan]-3-amine hydrochloride] | 4.5 µM
19 | FC(F)(F)c1cc2ccc(NC3=NO[C@@]4(C3)CN3CCC4CC3)cc2s1 [(R)-67, (R)—N-(2-(trifluoromethyl)benzo[b]thiophen-6-yl)-4H-1′-azaspiro[isoxazole-5,3′-bicyclo[2.2.2]octan]-3-amine hydrochloride] | > 10 µM
20 | Cc1ccc2nc(NC3=NO[C@@]4(C3)CN3CCC4CC3)ncc2c1 [(R)-70, (R)—N-(6-methylquinazolin-2-yl)spiro[4H-isoxazole-5,3^1-quinuclidine]-3-amine] | > 10 µM
21 | Cc1ccc2cnc(NC3=NO[C@@]4(C3)CN3CCC4CC3)nc2c1 [(R)-71, (R)—N-(7-methylquinazolin-2-yl)-4H-1′-azaspiro[isoxazole-5,3′-bicyclo[2.2.2]octan]-3-amine hydrochloride] | 6.4 µM
22 | Cc1nsc2cc(NC3=NO[C@@]4(C3)CN3CCC4CC3)ccc12 [(R)-72, (R)—N-(3-methylbenzo[d]isothiazol-6-yl)-4H-1′-azaspiro[isoxazole-5,3′-bicyclo[2.2.2]octan]-3-amine hydrochloride] | > 10 µM
23 | Cc1coc2cc(NC3=NO[C@@]4(C3)CN3CCC4CC3)ccc12 [(R)-74, (R)—N-(3-methylbenzofuran-6-yl)-4H-1′-azaspiro[isoxazole-5,3′-bicyclo[2.2.2]octan]-3-amine hydrochloride] | > 10 µM
24 | Cc1cc2cnc(NC3=NO[C@@]4(C3)CN3CCC4CC3)nc2o1 [(R)-75, (R)—N-(6-methylfuro[2,3-d]pyrimidin-2-yl)spiro[4H-isoxazole-5,3′-quinuclidine]-3-amine hydrochloride] | > 10 µM
25 | Clc1csc2cc(NC3=NO[C@@]4(C3)CN3CCC4CC3)ccc12 [(R)-76, (R)—N -(3-chlorobenzo[b]thiophen-6-yl)-4H-1′-azaspiro[isoxazole-5,3′-bicyclo[2.2.2]octan]-3-amine hydrochloride] | 2.8 µM
26 | Fc1c(Cl)sc2cc(NC3=NO[C@@]4(C3)CN3CCC4CC3)ccc12 [(R)-78, (R)—N-(2-chloro-3-fluorobenzo[b]thiophen-6-yl)-4H-1′-azaspiro[isoxazole-5,3′-bicyclo[2.2.2]octan]-3-amine hydrochloride] | > 10 µM
27 | c1cnc2ccc(NC3=NO[C@@]4(C3)CN3CCC4CC3)cc2c1 [(R)-80, (R)—N-(quinolin-6-yl)-41-1-1^1-azaspiro[isoxazole-5,3′-bicyclo[2.2.2]octan]-3-amine hydrochloride] | > 10 µM
28 | Fc1cc2cnc(NC3=NO[C@@]4(C3)CN3CCC4CC3)cc2cc1Cl [(R)-81, (R)—N-(6-chloro-7-fluoroisoquinolin-3-yl)-4H-1′-azaspiro[isoxazole-5,3^1-bicyclo[2.2.2]octan]-3-amine hydrochloride] | > 10 µM
29 | Fc1cc2cc(NC3=NO[C@@]4(C3)CN3CCC4CC3)ncc2cc1Cl [(R)-82, (R)—N-(7-chloro-6-fluoroisoquinolin-3-yl)-4H-1′-azaspiro[isoxazole-5,3′-bicyclo[2.2.2]octan]-3-amine hydrochloride] | > 10 µM
30 | FC(F)(F)c1ccc2cnc(NC3=NO[C@@]4(C3)CN3CCC4CC3)cc2c1 [(R)-83, (R)—N-(6-(trifluoromethypisoquinolin-3-yl)-4H-1′-azaspiro[isoxazole-5,3′-bicyclo[2.2.2]octan]-3-amine hydrochloride] | > 10 µM
31 | Clc1cccc2nc(NC3=NO[C@]4(C3)CN3CCC4CC3)sc12 [(S)-11, (S)—N-(7-chlorobenzo[d]thiazol-2-yl)-4H-1′-azaspiro[isoxazole-5,3′-bicyclo[2.2.2]octan]-3-amine] | 0.13 µM

same assay, conditions: read-out: h-5HT3 Ki

Row | Structure (SMILES) | Ki
32 | c1cnc2cc(NC3=NO[C@@]4(C3)CN3CCC4CC3)ccc2c1 [(R)-79, (R)—N-(quinolin-7-yl)-4H-1′-azaspiro[isoxazole-5,3′-bicyclo[2.2.2]octan]-3-amine hydrochloride] | 5.6 µM

molecular target: recombinantly expressed human α7-nAChR (Homo sapiens, UniProt P36544); test: not given; conditions: literature value, [125I] α-BTX radioligand, read-out: Ki (lit); cited from earlier work
Sequence (P36544 23-502): as the sequence (P36544 23-502) above

Row | Structure (SMILES) | Ki
33 | Cc1ccc(-c2ccc(OC3CN4CCC3CC4)cn2)cc1 (stereo not drawn) [AQW051] | 0.028 µM
